Values after ≈ are worked out from the molar mass of the structure shown. Active and inactive are the calls of the source. No cut-off for these calls is given here.
What was measured:
Staphylococcus aureus [1] = assay: Antibacterial agents against methicillin-resistant Staphylococcus aureus SA3 assessed as absence of growth measured after 18 hrs by micro-dilution method; assay type: functional
Staphylococcus aureus [2] = assay: Antibacterial agents against methicillin-resistant Staphylococcus aureus USA300 assessed as absence of growth measured after 18 hrs by micro-dilution method; assay type: functional
Staphylococcus aureus [3] = assay: Antibacterial agents against methicillin-sensitive Staphylococcus aureus SA1 assessed as absence of growth measured after 18 hrs by micro-dilution method; assay type: functional
Staphylococcus aureus [4] = assay: Antibacterial agents against methicillin-sensitive Staphylococcus aureus Newman assessed as absence of growth measured after 18 hrs by micro-dilution method; assay type: functional
Bacillus subtilis = assay: Antibacterial agents against Bacillus subtilis PS380 assessed as absence of growth measured after 18 hrs by micro-dilution method; assay type: functional
[5] = In vivo toxicity in Drosophila melanogaster strain Oregon R assessed as survival rate at 0.1 to 1 mg/ml measured upto 72 hrs relative to control; assay type: organism-based; settings: dose 0.1-1 mg/ml; for Activity: 72 h
[6] = Metabolic stability in human liver microsomes assessed as half life at 2 uM preincubated for 5 mins followed by NADPH addition and measured for 35 mins by LC/MS analysis; assay type: ADME, Microsome; settings: preincubation 5 min
[7] = Metabolic stability in human liver microsomes assessed as intrinsic clearance at 2 uM preincubated for 5 mins followed by NADPH addition and measured for 35 mins by LC/MS analysis; assay type: ADME, Microsome; settings: read-out: CLH
Pseudomonas aeruginosa = assay: Antibacterial agents against gram negative Pseudomonas aeruginosa PA14 assessed as reduction in colony forming unit at 0.05 to 0.2 ug/ml measured upto 10 hrs by LB agar medium method; assay type: functional, organism-based; settings: dose 0.05-0.2 µg/ml
Escherichia coli = assay: Antibacterial agents against gram negative Escherichia coli MG1655 assessed as reduction in colony forming unit at 0.05 to 0.2 ug/ml measured upto 10 hrs by LB agar medium method; assay type: functional, organism-based; settings: dose 0.05-0.2 µg/ml
Staphylococcus aureus [8] = assay: Antibacterial agents against c5-resistant mutant of methicillin-resistant Staphylococcus aureus SA3 m1 assessed as absence of growth measured after 18 hrs by micro-dilution method; assay type: functional
Staphylococcus aureus [9] = assay: Antibacterial agents against c5-resistant mutant of methicillin-resistant Staphylococcus aureus SA3 m2 assessed as absence of growth measured after 18 hrs by micro-dilution method; assay type: functional
Staphylococcus aureus [10] = assay: Antibacterial agents against c5-resistant mutant of methicillin-resistant Staphylococcus aureus SA3 m3 assessed as absence of growth measured after 18 hrs by micro-dilution method; assay type: functional
Staphylococcus aureus [11] = assay: Antibacterial agents against c5-resistant mutant of methicillin-resistant Staphylococcus aureus SA3 m4 assessed as absence of growth measured after 18 hrs by micro-dilution method; assay type: functional
Staphylococcus aureus [12] = assay: Induction of ROS generation in methicillin-resistant Staphylococcus aureus SA3 using hydroxyphenyl fluorescein at 0.09 ug/ml under anaerobic condition; assay type: functional, organism-based; settings: dose 0.09 µg/ml, TDE = time-dependent effect
Staphylococcus aureus [13] = assay: Induction of ROS generation in methicillin-resistant Staphylococcus aureus USA300 using hydroxyphenyl fluorescein at 0.09 ug/ml under anaerobic condition; assay type: functional, organism-based; settings: dose 0.09 µg/ml, TDE = time-dependent effect
Staphylococcus aureus [14] = assay: In vivo antibacterial activity against methicillin-resistant Staphylococcus aureus SA3 infected in dorsal thorax of Drosophila melanogaster strain Oregon R assessed as survival time of Drosophila at 0.2 mg/ml measured upto 72 hrs; assay type: functional
Staphylococcus aureus [15] = assay: In vivo antibacterial activity against methicillin-resistant Staphylococcus aureus SA3 infected in dorsal thorax of Drosophila melanogaster strain Oregon R assessed as median survival time of Drosophila at 0.04 to 0.2 mg/ml measured upto 72 hrs; assay type: functional; settings: dose 0.04-0.2 mg/ml
Staphylococcus aureus [16] = assay: Reduction in virulent activity of methicillin-resistant Staphylococcus aureus SA3 infected in dorsal thorax of Drosophila melanogaster strain Oregon R at 0.2 mg/ml measured upto 72 hrs; assay type: functional, organism-based

| Compound | MIC (Staphylococcus aureus [1]) [µg/mL] | MIC (Staphylococcus aureus [3]) [µg/mL] | MIC (Bacillus subtilis) [µg/mL] | other results |
| --- | --- | --- | --- | --- |
| CCCCCCCn1c2c([n+](Cc3ccco3)c1C)C(=O)c1ccccc1C2=O.[Br-] | 0.78 | 0.78 | 0.78 | MIC (Staphylococcus aureus [2]): 0.78 µg/mL; MIC (Staphylococcus aureus [4]): 0.78 µg/mL; Activity [5]: Non-Toxic; half-life at 2 µM [6]: 55.1 min; CLint scaled at 2 µM [7]: 24 mL/min/kg |
| CCCn1c2c([n+](Cc3ccco3)c1C)C(=O)c1ccccc1C2=O.[Br-] | 12.5 |  |  |  |
| POLYMYXIN B |  |  |  | Activity (Pseudomonas aeruginosa): inactive; Activity (Escherichia coli): inactive |
| CCCCCCCCCCn1c2c([n+](Cc3ccccc3)c1C)C(=O)c1ccccc1C2=O.[Br-] | 0.39 | 0.39 | 1.56 | MIC (Staphylococcus aureus [2]): 0.39 µg/mL; MIC (Staphylococcus aureus [4]): 0.39 µg/mL; Activity [5]: Toxic; half-life at 2 µM [6]: 13.2 min; CLint scaled at 2 µM [7]: 103 mL/min/kg |
| CCCCn1c2c([n+](C3CCCCC3)c1C)C(=O)c1ccccc1C2=O.[Br-] | 25 |  |  |  |
| CCCC[n+]1c2c(n(CC(C)C)c1C)C(=O)c1ccccc1C2=O.[Br-] | 3.13 |  |  |  |
| CCCCCCn1c2c([n+](CCCCCC)c1C)C(=O)c1ccccc1C2=O.[Br-] | 0.78 | 0.78 | 1.56 | MIC (Staphylococcus aureus [2]): 0.78 µg/mL; MIC (Staphylococcus aureus [4]): 0.78 µg/mL |
| CCCCCCCCCn1c2c([n+](Cc3ccccc3)c1C)C(=O)c1ccccc1C2=O.[Br-] | 0.39 | 0.39 | 1.56 | MIC (Staphylococcus aureus [2]): 0.39 µg/mL; MIC (Staphylococcus aureus [4]): 0.39 µg/mL; Activity [5]: Toxic; half-life at 2 µM [6]: 51.8 min; CLint scaled at 2 µM [7]: 26 mL/min/kg |
| Cc1n(C(C)C)c2c([n+]1Cc1ccccc1)C(=O)c1ccccc1C2=O.[Br-] | 3.13 |  |  |  |
| Cc1n(Cc2ccco2)c2c([n+]1Cc1ccccc1)C(=O)c1ccccc1C2=O.[Br-] | 6.25 |  |  |  |
| Cc1n(C2CCC2)c2c([n+]1Cc1ccccc1)C(=O)c1ccccc1C2=O.[Br-] | 3.13 |  |  |  |
| Cc1n(C2CCCCC2)c2c([n+]1Cc1ccccc1)C(=O)c1ccccc1C2=O.[Br-] | 1.56 | 0.78 | 1.56 |  |
| CCCCCCCn1c2c([n+](Cc3ccccc3)c1C)C(=O)c1ccccc1C2=O.[Br-] | 0.78 | 0.39 | 0.78 | MIC (Staphylococcus aureus [2]): 0.78 µg/mL; MIC (Staphylococcus aureus [4]): 0.39 µg/mL; survival at 72 h ([5]; Oregon R, at 0.1 to 1 mg/mL): 75%; half-life at 2 µM [6]: 15.6 min; CLint scaled at 2 µM [7]: 101 mL/min/kg |
| CCCCCCCCCCn1c2c([n+](CCCC)c1C)C(=O)c1ccccc1C2=O.[Br-] | 3.13 |  |  |  |
| COCC[n+]1c2c(n(Cc3cnccn3)c1C)C(=O)c1ccccc1C2=O.[Br-] [SEPANTRONIUM BROMIDE] | 50 |  |  |  |
| Cc1n(C2CCCCCC2)c2c([n+]1Cc1ccccc1)C(=O)c1ccccc1C2=O.[Br-] | 6.25 |  |  |  |
| CCCCn1c2c([n+](Cc3ccccc3)c1C)C(=O)c1ccccc1C2=O.[Br-] | 12.5 |  |  |  |
| Cc1n(C(C)(C)C)c2c([n+]1Cc1ccccc1)C(=O)c1ccccc1C2=O.[Br-] | 3.13 |  |  |  |
| CCn1c2c([n+](Cc3ccco3)c1C)C(=O)c1ccccc1C2=O.[Br-] | 12.5 |  |  |  |
| CCCCCn1c2c([n+](Cc3ccccc3)c1C)C(=O)c1ccccc1C2=O.[Br-] | 1.56 | 3.13 | 6.25 |  |
| CCCn1c2c([n+](Cc3ccccc3)c1C)C(=O)c1ccccc1C2=O.[Br-] | 6.25 |  |  |  |
| CCCCCC[n+]1c2c(n(CCOC)c1C)C(=O)c1ccccc1C2=O.[Br-] | 6.25 | 6.25 | 6.25 | MIC (Staphylococcus aureus [2]): 6.25 µg/mL; MIC (Staphylococcus aureus [4]): 6.25 µg/mL; MIC (Staphylococcus aureus [8]): > 50 µg/mL; MIC (Staphylococcus aureus [9]): > 50 µg/mL; MIC (Staphylococcus aureus [10]): > 50 µg/mL; MIC (Staphylococcus aureus [11]): > 50 µg/mL; half-life at 2 µM [6]: 33.7 min; CLint scaled at 2 µM [7]: 37 mL/min/kg; Activity (Staphylococcus aureus [12]): Tde; Activity (Staphylococcus aureus [13]): Tde; Time (Staphylococcus aureus [14]): 54 h; Time (Staphylococcus aureus [15]): 38 h; Activity (Staphylococcus aureus [16]): inactive |
| CCCCCCCCn1c2c([n+](Cc3ccco3)c1C)C(=O)c1ccccc1C2=O.[Br-] | 0.39 | 0.39 | 0.39 | MIC (Staphylococcus aureus [2]): 0.39 µg/mL; MIC (Staphylococcus aureus [4]): 0.39 µg/mL; Activity [5]: Toxic; half-life at 2 µM [6]: 16.1 min; CLint scaled at 2 µM [7]: 95 mL/min/kg |
| CCCCCCn1c2c([n+](Cc3ccco3)c1C)C(=O)c1ccccc1C2=O.[Br-] | 0.78 | 0.78 | 3.13 |  |

| Compound | MIC (Staphylococcus aureus [1]) [µg/mL] | MIC (Staphylococcus aureus [3]) [µg/mL] | MIC (Bacillus subtilis) [µg/mL] | other results |
| --- | --- | --- | --- | --- |
| CCCCCCCn1c2c([n+](CCCCCCC)c1C)C(=O)c1ccccc1C2=O.[Br-] | 0.39 | 0.39 | 0.39 | MIC (Staphylococcus aureus [2]): 0.39 µg/mL; MIC (Staphylococcus aureus [4]): 0.39 µg/mL; Activity [5]: Non-Toxic; half-life at 2 µM [6]: 17.4 min; CLint scaled at 2 µM [7]: 77 mL/min/kg |
| CCCCCn1c2c([n+](CCCC)c1C)C(=O)c1ccccc1C2=O.[Br-] | 3.13 |  |  |  |
| CCCC[n+]1c2c(n(C3CCC3)c1C)C(=O)c1ccccc1C2=O.[Br-] | 25 |  |  |  |
| Cc1n(C2CC2)c2c([n+]1Cc1ccccc1)C(=O)c1ccccc1C2=O.[Br-] | 6.25 |  |  |  |
| Cc1n(C2CCCC2)c2c([n+]1Cc1ccccc1)C(=O)c1ccccc1C2=O.[Br-] | 12.5 |  |  |  |
| Cc1n(CC(C)C)c2c([n+]1Cc1ccccc1)C(=O)c1ccccc1C2=O.[Br-] | 3.13 |  |  |  |
| CCCC[n+]1c2c(n(CC3CC3)c1C)C(=O)c1ccccc1C2=O.[Br-] | 12.5 |  |  |  |
| CCCC[n+]1c2c(n(C(C)(C)C)c1C)C(=O)c1ccccc1C2=O.[Br-] | 6.25 |  |  |  |
| CN[C@H](CC(C)C)C(=O)N[C@H]1C(=O)N[C@@H](CC(N)=O)C(=O)N[C@H]2C(=O)N[C@H]3C(=O)N[C@H](C(=O)N[C@H](C(=O)O)c4cc(O)cc(O)c4-c4cc3ccc4O)[C@H](O)c3ccc(c(Cl)c3)Oc3cc2cc(c3O[C@@H]2O[C@H](CO)[C@@H](O)[C@H](O)[C@H]2O[C@H]2C[C@](C)(N)[C@H](O)[C@H](C)O2)Oc2ccc(cc2Cl)[C@H]1O [VANCOMYCIN] | 6.25 (≈ 4.31 µM) | 1.56 (≈ 1.08 µM) | 0.19 (≈ 0.131 µM) | MIC (Staphylococcus aureus [2]): 6.25 µg/mL (≈ 4.31 µM); MIC (Staphylococcus aureus [4]): 1.56 µg/mL (≈ 1.08 µM); Time (Staphylococcus aureus [14]): 54 h; Time (Staphylococcus aureus [15]): 40 h; Activity (Staphylococcus aureus [16]): inactive |
| CCCCCn1c2c([n+](Cc3ccco3)c1C)C(=O)c1ccccc1C2=O.[Br-] | 3.13 |  |  |  |
| CCCCCCCCn1c2c([n+](CCCCCCCC)c1C)C(=O)c1ccccc1C2=O.[Br-] | 3.13 |  |  |  |
| CCn1c2c([n+](Cc3ccccc3)c1C)C(=O)c1ccccc1C2=O.[Br-] | 3.13 |  |  |  |
| CCCCCCCCn1c2c([n+](CCCC)c1C)C(=O)c1ccccc1C2=O.[Br-] | 0.39 | 0.39 | 0.39 | MIC (Staphylococcus aureus [2]): 0.39 µg/mL; MIC (Staphylococcus aureus [4]): 0.39 µg/mL; Activity [5]: Non-Toxic; half-life at 2 µM [6]: 11.6 min; CLint scaled at 2 µM [7]: 125 mL/min/kg |
| CCCCCCCn1c2c([n+](CCCC)c1C)C(=O)c1ccccc1C2=O.[Br-] | 0.78 | 0.78 | 0.39 |  |
| CCCCn1c2c([n+](CC3CCCCC3)c1C)C(=O)c1ccccc1C2=O.[Br-] | 3.13 |  |  |  |
| CCCCCC[n+]1c2c(n(CCCC)c1C)C(=O)c1ccccc1C2=O.[Br-] | 3.13 |  |  |  |
| Cc1n(CC2CC2)c2c([n+]1Cc1ccccc1)C(=O)c1ccccc1C2=O.[Br-] | 1.56 | 0.78 | 1.56 |  |
| Cc1n(CC2CCCCC2)c2c([n+]1Cc1ccccc1)C(=O)c1ccccc1C2=O.[Br-] | 1.56 | 1.56 | 0.78 |  |
| CCCCCCCCCn1c2c([n+](CCCC)c1C)C(=O)c1ccccc1C2=O.[Br-] | 3.13 |  |  |  |
| CCCCCCn1c2c([n+](Cc3ccccc3)c1C)C(=O)c1ccccc1C2=O.[Br-] | 0.78 | 0.78 | 0.78 |  |
| CCCCn1c2c([n+](Cc3ccco3)c1C)C(=O)c1ccccc1C2=O.[Br-] | 6.25 |  |  |  |
| CCCCCn1c2c([n+](CCCCC)c1C)C(=O)c1ccccc1C2=O.[Br-] | 3.13 |  |  |  |
| CCCC[n+]1c2c(n(C(C)C)c1C)C(=O)c1ccccc1C2=O.[Br-] | 3.13 |  |  |  |

Source: ChEMBL document CHEMBL5500375, “Design, synthesis, and evaluation of N1,N3-dialkyldioxonaphthoimidazoliums as antibacterial agents against methicillin-resistant Staphylococcus aureus” (Eur J Med Chem, 2024)
